Laboratory results as given in ChEMBL document CHEMBL4049404, “Discovery of (R)-1-(3-(4-Amino-3-(3-chloro-4-(pyridin-2-ylmethoxy)phenyl)-1H-pyrazolo[3,4-d]pyrimidin-1-yl)piperidin-1-yl)prop-2-en-1-one (CHMFL-EGFR-202) as a Novel Irreversible EGFR Mutant Kinase Inhibitor with a Distinct Binding Mode” (J Med Chem, 2017).

Tests used:
[1] = molecular target: T1, Epidermal growth factor receptor (Homo sapiens, UniProt P00533); assay: Inhibition of wild type EGFR autophosphorylation at Y1068 in human A549 cells at 0.01 to 3 uM after 4 hrs by Western blot analysis; type: cell-based; conditions: a549, 4 h
T1 sequence (P00533 whole entry, the tested form may be a part): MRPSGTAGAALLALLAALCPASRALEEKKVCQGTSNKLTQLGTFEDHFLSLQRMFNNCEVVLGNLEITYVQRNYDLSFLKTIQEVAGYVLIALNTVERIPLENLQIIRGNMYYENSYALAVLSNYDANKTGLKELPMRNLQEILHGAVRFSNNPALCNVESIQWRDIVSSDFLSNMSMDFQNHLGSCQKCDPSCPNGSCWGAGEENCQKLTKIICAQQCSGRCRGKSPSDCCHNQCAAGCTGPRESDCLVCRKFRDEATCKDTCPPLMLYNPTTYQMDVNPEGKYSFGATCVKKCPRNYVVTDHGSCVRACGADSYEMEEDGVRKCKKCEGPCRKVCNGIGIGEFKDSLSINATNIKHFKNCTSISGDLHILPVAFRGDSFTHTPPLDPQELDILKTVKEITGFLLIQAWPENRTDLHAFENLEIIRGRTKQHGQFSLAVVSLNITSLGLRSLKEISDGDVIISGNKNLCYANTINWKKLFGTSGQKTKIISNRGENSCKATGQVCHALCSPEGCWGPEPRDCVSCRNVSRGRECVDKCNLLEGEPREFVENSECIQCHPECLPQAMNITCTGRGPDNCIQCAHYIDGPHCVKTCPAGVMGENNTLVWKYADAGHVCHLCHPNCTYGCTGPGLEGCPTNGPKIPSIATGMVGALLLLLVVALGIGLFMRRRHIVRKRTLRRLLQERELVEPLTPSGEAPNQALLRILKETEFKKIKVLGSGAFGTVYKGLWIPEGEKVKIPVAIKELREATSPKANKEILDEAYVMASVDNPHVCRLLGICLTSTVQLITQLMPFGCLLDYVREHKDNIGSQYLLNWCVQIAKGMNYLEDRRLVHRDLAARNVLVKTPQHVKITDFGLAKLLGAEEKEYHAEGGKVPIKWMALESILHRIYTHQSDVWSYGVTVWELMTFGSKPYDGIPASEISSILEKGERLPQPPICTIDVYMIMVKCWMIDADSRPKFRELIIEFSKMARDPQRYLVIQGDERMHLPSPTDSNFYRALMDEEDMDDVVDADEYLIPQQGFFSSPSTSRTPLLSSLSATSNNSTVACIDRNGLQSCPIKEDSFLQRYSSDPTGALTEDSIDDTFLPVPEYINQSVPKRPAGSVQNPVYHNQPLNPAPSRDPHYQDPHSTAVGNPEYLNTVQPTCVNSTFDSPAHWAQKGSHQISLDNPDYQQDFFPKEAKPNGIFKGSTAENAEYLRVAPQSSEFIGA

[2] = molecular target: T1, Epidermal growth factor receptor; assay: Inhibition of Tel-fused EGFR (unknown origin) expressed in mouse BAF3 cells assessed as growth inhibition after 72 hrs by CellTiter-Glo assay; type: cell-based
[3] = molecular target: T1, Epidermal growth factor receptor; assay: Inhibition of wild-type EGFR in human NCI-H2122 cells assessed as reduction in Akt phosphorylation at 308 site at 0.01 to 3 uM by Western blot analysis; type: cell-based
[4] = molecular target: T2, Dual specificity mitogen-activated protein kinase kinase 1 (Homo sapiens, UniProt Q02750); assay: Binding affinity to full-length human MEK1 expressed in mammalian system assessed as control score at 1 uM by KINOMEScan assay
T2 sequence (Q02750 whole entry): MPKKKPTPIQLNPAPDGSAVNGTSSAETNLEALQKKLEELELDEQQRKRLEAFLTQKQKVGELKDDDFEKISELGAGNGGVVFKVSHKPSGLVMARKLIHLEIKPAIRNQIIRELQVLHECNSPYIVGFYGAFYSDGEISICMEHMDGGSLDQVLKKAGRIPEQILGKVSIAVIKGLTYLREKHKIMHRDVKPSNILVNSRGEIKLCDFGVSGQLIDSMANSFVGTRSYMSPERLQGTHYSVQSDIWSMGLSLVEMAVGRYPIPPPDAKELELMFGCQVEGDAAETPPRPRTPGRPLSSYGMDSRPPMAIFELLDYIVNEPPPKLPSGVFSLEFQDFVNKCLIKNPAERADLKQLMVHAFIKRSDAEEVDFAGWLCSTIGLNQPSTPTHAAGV

[5] = Tmax in Sprague-Dawley rat plasma at 1 mg/kg, iv after 8 hrs; type: ADME, organism-based
[6] = molecular target: T3, Receptor tyrosine-protein kinase erbB-4 (Homo sapiens, UniProt Q15303); assay: Inhibition of recombinant human N-terminal GST-tagged ERBB4 cytoplasmic domain (708 to 993 residues) expressed in baculovirus by Z'-LYTE assay
T3 sequence (Q15303 whole entry, the tested form may be a part): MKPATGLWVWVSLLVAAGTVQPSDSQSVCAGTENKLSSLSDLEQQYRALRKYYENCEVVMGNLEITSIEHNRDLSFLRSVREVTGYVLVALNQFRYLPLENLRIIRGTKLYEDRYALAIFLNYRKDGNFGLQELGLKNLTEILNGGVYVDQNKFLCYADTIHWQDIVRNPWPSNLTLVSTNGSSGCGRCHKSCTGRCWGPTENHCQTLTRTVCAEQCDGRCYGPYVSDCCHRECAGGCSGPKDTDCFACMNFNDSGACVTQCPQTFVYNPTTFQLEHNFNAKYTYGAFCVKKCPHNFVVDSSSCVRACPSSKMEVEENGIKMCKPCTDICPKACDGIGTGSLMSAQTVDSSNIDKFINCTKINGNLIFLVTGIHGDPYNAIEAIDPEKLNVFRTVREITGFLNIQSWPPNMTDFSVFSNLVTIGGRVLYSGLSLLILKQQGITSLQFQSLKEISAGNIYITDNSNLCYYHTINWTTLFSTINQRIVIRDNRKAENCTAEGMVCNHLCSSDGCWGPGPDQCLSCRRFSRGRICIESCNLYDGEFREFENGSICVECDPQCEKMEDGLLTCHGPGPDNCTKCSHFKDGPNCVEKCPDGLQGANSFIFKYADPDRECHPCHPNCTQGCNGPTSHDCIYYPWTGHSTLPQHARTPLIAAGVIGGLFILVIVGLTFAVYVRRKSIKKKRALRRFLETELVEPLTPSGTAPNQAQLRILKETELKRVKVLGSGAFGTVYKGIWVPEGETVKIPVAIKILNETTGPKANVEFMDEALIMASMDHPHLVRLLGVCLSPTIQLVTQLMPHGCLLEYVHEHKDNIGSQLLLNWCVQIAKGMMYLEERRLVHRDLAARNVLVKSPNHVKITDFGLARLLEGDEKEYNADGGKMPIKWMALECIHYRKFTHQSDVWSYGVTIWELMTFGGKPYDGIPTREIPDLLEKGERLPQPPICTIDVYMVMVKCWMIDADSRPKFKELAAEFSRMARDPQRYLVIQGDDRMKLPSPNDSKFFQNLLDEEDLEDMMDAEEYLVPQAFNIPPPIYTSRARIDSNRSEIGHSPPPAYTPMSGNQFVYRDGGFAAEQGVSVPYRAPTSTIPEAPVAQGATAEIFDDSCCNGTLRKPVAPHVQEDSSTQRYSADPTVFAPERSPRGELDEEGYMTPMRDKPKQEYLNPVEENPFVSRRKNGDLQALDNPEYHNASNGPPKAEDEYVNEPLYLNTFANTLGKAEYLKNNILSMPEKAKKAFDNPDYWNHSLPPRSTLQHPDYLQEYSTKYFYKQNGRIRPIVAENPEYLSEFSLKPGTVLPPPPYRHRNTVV

[7] = molecular target: Epidermal growth factor receptor (Homo sapiens, UniProt P00533, L858R/T790M); assay: Inhibition of EGFR T790M/L858R mutant (unknown origin) autophosphorylation at Y1068 expressed in mouse BAF3 cells after 4 hrs by Western blot analysis; type: cell-based
Rattus norvegicus [8] = assay: AUC (0 to t) in Sprague-Dawley rat plasma at 1 mg/kg, iv after 8 hrs; type: ADME, organism-based; design: time < 8 hr, dose 1 mg/kg, route intravenous; conditions: in vivo
[9] = molecular target: T1, Epidermal growth factor receptor; assay: Inhibition of wild-type EGFR in human H1355 cells assessed as growth inhibition after 72 hrs by CellTiter-Glo assay; type: cell-based
[10] = molecular target: T4, Receptor tyrosine-protein kinase erbB-2 (Homo sapiens, UniProt P04626); assay: Inhibition of recombinant human […] ERBB2 cytoplasmic domain (676 to 1255 residues) expressed in baculovirus by Z'-LYTE assay
T4 sequence (P04626 whole entry, the tested form may be a part): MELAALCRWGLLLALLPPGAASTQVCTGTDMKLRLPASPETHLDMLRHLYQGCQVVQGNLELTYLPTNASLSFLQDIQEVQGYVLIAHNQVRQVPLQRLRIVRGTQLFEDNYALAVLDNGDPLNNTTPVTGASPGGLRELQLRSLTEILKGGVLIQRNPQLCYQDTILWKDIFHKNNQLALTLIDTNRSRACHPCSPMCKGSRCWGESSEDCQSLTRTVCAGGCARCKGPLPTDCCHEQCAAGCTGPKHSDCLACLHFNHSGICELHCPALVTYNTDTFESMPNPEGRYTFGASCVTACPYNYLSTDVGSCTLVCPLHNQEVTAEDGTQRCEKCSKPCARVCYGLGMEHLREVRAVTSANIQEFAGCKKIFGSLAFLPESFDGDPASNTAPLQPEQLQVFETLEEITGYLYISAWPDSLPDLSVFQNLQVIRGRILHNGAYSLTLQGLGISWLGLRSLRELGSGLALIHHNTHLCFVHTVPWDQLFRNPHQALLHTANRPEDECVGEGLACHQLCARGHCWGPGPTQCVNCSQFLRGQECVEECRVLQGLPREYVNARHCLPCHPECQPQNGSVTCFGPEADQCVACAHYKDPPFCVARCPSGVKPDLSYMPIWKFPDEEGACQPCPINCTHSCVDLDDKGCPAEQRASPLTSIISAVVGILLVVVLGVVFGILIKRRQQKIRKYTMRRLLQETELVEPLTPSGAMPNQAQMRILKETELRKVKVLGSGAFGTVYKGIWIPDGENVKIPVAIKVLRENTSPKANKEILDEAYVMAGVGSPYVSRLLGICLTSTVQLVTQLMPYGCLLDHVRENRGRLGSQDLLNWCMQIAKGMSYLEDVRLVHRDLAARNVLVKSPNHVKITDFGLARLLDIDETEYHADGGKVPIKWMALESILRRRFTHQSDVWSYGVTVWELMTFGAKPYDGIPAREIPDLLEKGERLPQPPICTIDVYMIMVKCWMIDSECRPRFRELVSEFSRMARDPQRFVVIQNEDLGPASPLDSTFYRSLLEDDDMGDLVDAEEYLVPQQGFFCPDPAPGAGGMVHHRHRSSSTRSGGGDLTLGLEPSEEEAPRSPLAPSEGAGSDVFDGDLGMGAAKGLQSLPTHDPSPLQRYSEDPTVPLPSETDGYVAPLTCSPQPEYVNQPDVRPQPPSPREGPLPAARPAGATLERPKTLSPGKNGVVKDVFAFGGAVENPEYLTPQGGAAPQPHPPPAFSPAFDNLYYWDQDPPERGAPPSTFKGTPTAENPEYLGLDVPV

[11] = molecular target: T1, Epidermal growth factor receptor; assay: Inhibition of wild-type EGFR in human NCI-H2122 cells assessed as reduction in ERK phosphorylation at Thr202/Tyr204 site at 0.01 to 3 uM by Western blot analysis; type: cell-based
[12] = molecular target: Tyrosine-protein kinase BTK (Homo sapiens, UniProt Q06187); assay: Inhibition of full-length recombinant human His-tagged BTK cytoplasmic domain expressed in baculovirus by Z'-LYTE assay
[13] = molecular target: Cytoplasmic tyrosine-protein kinase BMX (Homo sapiens) (UniProt P51813); assay: Binding affinity to wild-type human BMX expressed in bacterial system assessed as control score at 1 uM by KINOMEScan assay
[14] = molecular target: T1, Epidermal growth factor receptor; assay: Inhibition of wild-type EGFR in human A549 cells assessed as growth inhibition after 72 hrs by CellTiter-Glo assay; type: cell-based; conditions: a549, 72 h
[15] = molecular target: T5, Tyrosine-protein kinase Blk (Homo sapiens, UniProt P51451); assay: Inhibition of full-length recombinant human His-tagged BLK expressed in baculovirus by Z'-LYTE assay
[16] = molecular target: T1, Epidermal growth factor receptor; assay: Inhibition of wild-type EGFR in human NCI-H2122 cells assessed as reduction in eIF4E phosphorylation at Ser209 site at 0.01 to 3 uM by Western blot analysis; type: cell-based
[17] = molecular target: Cytoplasmic tyrosine-protein kinase BMX (Homo sapiens, UniProt P51813); assay: Inhibition of full-length recombinant human His-tagged BMX expressed in baculovirus by Z'-LYTE assay
[18] = molecular target: T4, Receptor tyrosine-protein kinase erbB-2; assay: Binding affinity to wild-type human ERBB2 expressed in mammalian system assessed as control score at 1 uM by KINOMEScan assay
[19] = Tmax in Sprague-Dawley rat plasma at 10 mg/kg, po after 24 hrs; type: ADME, organism-based
[20] = molecular target: T1, Epidermal growth factor receptor; assay: Inhibition of wild-type EGFR in human NCI-H2122 cells assessed as reduction in Akt phosphorylation at 473 site at 0.01 to 3 uM by Western blot analysis; type: cell-based
[21] = molecular target: T1, Epidermal growth factor receptor; assay: Inhibition of wild-type EGFR in human NCI-H2122 cells assessed as reduction in 4EBP1 phosphorylation at Thr37/46 site at 0.01 to 3 uM by Western blot analysis; type: cell-based
[22] = molecular target: T2, Dual specificity mitogen-activated protein kinase kinase 1; assay: Inhibition of full-length recombinant human His-tagged MEK1 expressed in baculovirus by Z'-LYTE assay
[23] = Half life in Sprague-Dawley rat plasma at 10 mg/kg, po after 24 hrs; type: ADME, organism-based
[24] = MRT (0 to infinity) in Sprague-Dawley rat plasma at 1 mg/kg, iv after 8 hrs; type: ADME, organism-based
[25] = molecular target: T1, Epidermal growth factor receptor; assay: Inhibition of wild-type EGFR in human A549 cells assessed as reduction in ERK phosphorylation at Thr202/Tyr204 site at 0.01 to 3 uM by Western blot analysis; type: cell-based; conditions: a549, 3 µM
[26] = molecular target: T1, Epidermal growth factor receptor; assay: Inhibition of wild-type EGFR in human NCI-H2122 cells assessed as reduction in P70S6K phosphorylation at Thr389 site at 0.01 to 3 uM by Western blot analysis; type: cell-based
[27] = molecular target: T3, Receptor tyrosine-protein kinase erbB-4; assay: Binding affinity to wild-type human ERBB4 expressed in bacterial system assessed as control score at 1 uM by KINOMEScan assay
[28] = molecular target: T1, Epidermal growth factor receptor; assay: Inhibition of wild-type EGFR in human A549 cells assessed as reduction in Akt phosphorylation at 473 site at 0.01 to 3 uM by Western blot analysis; type: cell-based; conditions: a549, 3 µM
[29] = molecular target: Epidermal growth factor receptor (Homo sapiens, UniProt P00533, L858R); assay: Inhibition of EGFR L858R mutant expressed in human H3255 cells assessed as reduction in ERK phosphorylation at Thr202/Tyr204 measured after 4 hrs by Western blot analysis; type: cell-based
[30] = molecular target: Dual specificity mitogen-activated protein kinase kinase 5 (Homo sapiens) (UniProt Q13163); assay: Binding affinity to wild-type human MEK5 expressed in mammalian system assessed as control score at 1 uM by KINOMEScan assay
[31] = molecular target: Insulin receptor (Homo sapiens) (UniProt P06213); assay: Inhibition of Tel-fused INSR (unknown origin) expressed in mouse BAF3 cells assessed as growth inhibition after 72 hrs by CellTiter-Glo assay; type: cell-based
[32] = molecular target: T1, Epidermal growth factor receptor; assay: Inhibition of wild-type EGFR in human A549 cells assessed as reduction in STAT3 phosphorylation at Y705 site at 0.01 to 3 uM by Western blot analysis; type: cell-based; conditions: a549, 3 µM
[33] = molecular target: Epidermal growth factor receptor (Homo sapiens, UniProt P00533, EX19DEL); assay: Inhibition of EGFR exon 19 deletion mutant in human HCC827 cells assessed as reduction in ERK phosphorylation at Thr202/Tyr204 measured after 4 hrs by Western blot analysis; type: cell-based
[34] = Half life in Sprague-Dawley rat plasma at 1 mg/kg, iv after 8 hrs; type: ADME, organism-based
Rattus norvegicus [35] = assay: AUC (0 to t) in Sprague-Dawley rat plasma at 10 mg/kg, po after 24 hrs; type: ADME, organism-based; design: dose 10 mg/kg, time < 24 hr, route oral; conditions: in vivo
[36] = molecular target: T5, Tyrosine-protein kinase Blk; assay: Binding affinity to wild-type human BLK expressed in bacterial system assessed as control score at 1 uM by KINOMEScan assay
Target sequence in this assay (P51451 2-505 limits assumed): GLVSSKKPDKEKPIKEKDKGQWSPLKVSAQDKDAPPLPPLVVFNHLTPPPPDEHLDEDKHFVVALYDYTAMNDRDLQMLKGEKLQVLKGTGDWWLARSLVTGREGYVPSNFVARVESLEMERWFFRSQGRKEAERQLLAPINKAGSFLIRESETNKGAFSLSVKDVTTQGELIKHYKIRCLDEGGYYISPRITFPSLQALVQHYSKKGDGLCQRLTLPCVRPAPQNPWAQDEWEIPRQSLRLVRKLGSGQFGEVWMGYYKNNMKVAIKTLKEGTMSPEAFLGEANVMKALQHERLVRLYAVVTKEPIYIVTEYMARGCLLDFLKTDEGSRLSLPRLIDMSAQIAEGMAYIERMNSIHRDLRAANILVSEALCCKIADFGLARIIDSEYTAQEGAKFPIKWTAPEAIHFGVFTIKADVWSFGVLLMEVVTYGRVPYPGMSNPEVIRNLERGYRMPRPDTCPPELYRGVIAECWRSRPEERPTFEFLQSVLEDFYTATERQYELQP

[37] = Apparent plasma clearance in Sprague-Dawley rat at 1 mg/kg, iv after 8 hrs; type: ADME, organism-based

For C=CC(=O)N1CCC[C@@H](n2nc(-c3ccc(OCc4ccccn4)c(Cl)c3)c3c(N)ncnc32)C1, the “inhibition (INH)” value [1] was “Active”, the GI50 [2] was 2000 nM and the “inhibition (INH)” value [3] was “Not Active”. It also gave an Activity [4] of 0.4%, a Tmax [5] of 1.02 min and an IC50 [6] of 3.2 nM. It also gave an EC50 [7] of 7 nM, an AUCt (Rattus norvegicus [8]) of 404 to 2340 ng/mL/h and a GI50 [9] of over 10000 nM. For the same compound, the IC50 [10] was 8.1 nM, the “inhibition (INH)” value [11] was “Not Active” and the IC50 [12] was 24.5 nM. The Activity [13] was 0.9%, the GI50 [14] was over 10000 nM and the IC50 [15] was 8.1 nM. For the same compound, the “inhibition (INH)” value [16] was “Not Active”, the IC50 [17] was 111 nM and the Activity [18] was 0%. For the same compound, the Tmax [19] was 34.8 min, the “inhibition (INH)” value [20] was “Not Active” and the “inhibition (INH)” value [21] was “Not Active”. It also gave an IC50 [22] of 161 nM, a half-life [23] of 117 min and an MRT inf [24] of 12.6 min. The “inhibition (INH)” value [25] was “Not Active”, the “inhibition (INH)” value [26] was “Not Active” and the Activity [27] was 0%. For the same compound, the “inhibition (INH)” value [28] was “Not Active”, the EC50 [29] was under 10 nM and the Activity [30] was 0.1%. The GI50 [31] was 3500 nM, the “inhibition (INH)” value [32] was “Not Active” and the EC50 [33] was under 10 nM. It also gave a half-life [34] of 18 min, an AUCt (Rattus norvegicus [35]) of 130 to 415 ng/mL/h and an Activity [36] of 0.7%. For the same compound, the clearance [37] was 41.3 mL/min/kg.
